Assays:
Assay type in all cases: functional
KB = test: Cytotoxicity against human KB cells after 72 hrs by MTT assay; conditions: read-out: ED50 (the source's name)
[1] = Cytotoxicity against human KBVIN cells after 72 hrs by MTT assay; conditions: read-out: ED50 (the source's name)
DU-145 = test: Cytotoxicity against human DU145 cells after 72 hrs by MTT assay; conditions: DU-145, 72 h, read-out: ED50 (the source's name)
A549 = test: Cytotoxicity against human A549 cells after 72 hrs by MTT assay; conditions: A549, 72 h, read-out: ED50 (the source's name)
SK-BR-3 = test: Cytotoxicity against human SKBR3 cells after 72 hrs by MTT assay; conditions: SK-BR-3, 72 h, read-out: ED50 (the source's name)

SMILES | EC50 (KB) [nM] | EC50 [1] [nM] | EC50 (DU-145) [nM] | EC50 (A549) [nM] | EC50 (SK-BR-3) [nM]
Nc1cc(=O)oc2c1ccc1ccccc12 | 170 | 130 | 110 | 110 | 130
O=c1cc(NC2CCCCC2)cc(-c2ccccc2)o1 | 16000 | 9150 | 7470 | 9690 | 10900
O=c1cc(NC2CCCCC2)cc(/C=C/c2ccccc2)o1 | 2020 | 1240 | 1230 | 1250 | 1530
COc1ccc(Nc2cc(C)oc(=O)c2)cc1 | > 30000 | > 30000 | > 30000 | > 30000 | > 30000
COc1ccc(Nc2cc(C(C)C)oc(=O)c2)cc1 | > 30000 | > 30000 | > 30000 | > 30000 | > 30000
CCCCCc1cc(Nc2ccc(OC)cc2)cc(=O)o1 | 10100 | 4840 | 5940 | 4420 | 4930
COc1ccc(Nc2cc(C3CCCC3)oc(=O)c2)cc1 | 8380 | 4980 | 5420 | 5420 | 4730
COc1ccc(Nc2cc(C3CCCCC3)oc(=O)c2)cc1 | 8320 | 4390 | 8610 | 4620 | 5290
COc1ccc(Nc2cc(-c3ccccc3)oc(=O)c2)cc1 | 160 | 98 | 120 | 93 | 79
COc1ccc(Nc2cc(/C=C/c3ccccc3)oc(=O)c2)cc1 | 150 | 100 | 110 | 110 | 83
COc1ccc(Nc2cc(Cc3ccccc3)oc(=O)c2)cc1 | – | 1300 | 1600 | 1620 | 1340
COc1ccc(Nc2cc(-c3ccco3)oc(=O)c2)cc1 | 2660 | 1460 | 1950 | 1910 | 1760
COc1ccc(Nc2cc(-c3ccc4ccccc4c3)oc(=O)c2)cc1 | 180 | 130 | 150 | 150 | 130
O=c1cc(NC2CC2)cc(-c2ccccc2)o1 | > 30000 | > 30000 | > 30000 | > 30000 | > 30000
O=c1cc(N2CCCCC2)cc(-c2ccccc2)o1 | > 30000 | > 30000 | > 30000 | > 30000 | > 30000
O=c1cc(Nc2ccccc2)cc(-c2ccccc2)o1 | 130 | 150 | 98 | 120 | 130
Cc1ccc(Nc2cc(-c3ccccc3)oc(=O)c2)cc1 | 64 | 59 | 73 | 67 | 90
O=c1cc(Nc2ccc(Br)cc2)cc(-c2ccccc2)o1 | 320 | 240 | 340 | 310 | 400
COc1ccccc1Nc1cc(-c2ccccc2)oc(=O)c1 | 350 | 490 | 370 | – | 540
COc1cccc(Nc2cc(-c3ccccc3)oc(=O)c2)c1 | 490 | 550 | 660 | 630 | 740

Source: ChEMBL document CHEMBL1759953, “Antitumor agents 287. Substituted 4-amino-2H-pyran-2-one (APO) analogs reveal a new scaffold from neo-tanshinlactone with in vitro anticancer activity” (2011)
